In US9580430B2, “9H-pyrimido[4,5-B]indoles and related analogs as BET bromodomain inhibitors” (THE REGENTS OF THE UNIVERSITY OF MICHIGAN, priority 2014, dated 2017):

Columns and labels:
recombinant BRD4 BD1 = target: T1, recombinant BRD4 BD1 (Homo sapiens, UniProt O60885); assay: Competitive fluorescence-polarization (FP) binding assay, BRD4 BD1; settings: competitive FP assay; protein 10 nM, probe […]; read-out: IC50 (nM) BRD4 BD1; note: probe 1.5 nM
T1 construct: for recombinant BRD4 BD1 and BRD4 BD2 proteins
How it was run: (§1)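 FP competition with FAM-labelled probe (ZBA248 or BRD-1F) against preincubated protein/probe complex; BD1 at 10 nM and BD2 at 6 nM final, in 100 mM potassium phosphate pH 6.5, 0.01% Triton X-100. 30 min, room temperature. IC50 by nonlinear regression; Ki also derived, using probe Kd from protein saturation.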

MOLM-13 = assay: Cell growth inhibition, MOLM-13 leukemia cells (CellTiter-Glo); type: cell-based; settings: Homo sapiens, MOLM-13, 96 h; 4 days; read-out: IC50 (nM) MOLM-13 Cell Line (CellTiter-Glo assay)
How it was run: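 MOLM-13 leukemia cells treated with compounds; viability read by CellTiter-Glo luminescence after 10-20 min reagent incubation at room temperature. IC50 derived from luminescent signal.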

recombinant BRD4 BD2 = target: T2, recombinant BRD4 BD2 (Homo sapiens, UniProt O60885); assay: Competitive fluorescence-polarization (FP) binding assay, BRD4 BD2; settings: competitive FP assay; protein 6 nM, probe […]; read-out: IC50 (nM) BRD4 BD2; note: probe 1.5 nM
T2 construct: for recombinant BRD4 BD1 and BRD4 BD2 proteins
How it was run: as §1

MDA-MB-436 = assay: Cell growth inhibition, MDA-MB-436 breast cancer cells (WST-8); type: cell-based; settings: Homo sapiens, MDA-MB-436, 96 h; 4 days; read-out: IC50 (nM) MDA-MB-436 Cell Line (WST assay)
How it was run: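 IC50 was computed from WST-8-based cell counting in MDA-MB-436 cells, with absorbance read at 450 nm.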

| IC50 (recombinant BRD4 BD1) [nM] | IC50 (MOLM-13) [nM] | IC50 (recombinant BRD4 BD2) [nM] | IC50 (MDA-MB-436) [nM] | Compound |
| --- | --- | --- | --- | --- |
| 3.6 | 8.1 | 2.7 | 47.5 | COc1cc2c(cc1-c1c(C)noc1C)[nH]c1nc(C)nc(Nc3cn(C)nc3C(C)(C)C)c12 [Cpd. No. 193, N-(3-(tert-butyl)-1-methyl-1H-pyrazol-4-yl)-7-(3,5-dimethylisoxazol-4-yl)-6-methoxy-2-methyl-9H-pyrimido[4,5-b]indol-4-amine] |
| 23.2 | 30.7 | 136 | 81.1 | COc1cc2c(cc1-c1c(C)noc1C)[nH]c1nc(C)nc(Nc3cc(C)n(C)n3)c12 [Cpd. No. 115, N-(1,5-Dimethyl-1H-pyrazol-3-yl)-7-(3,5-dimethylisoxazol-4-yl)-6-methoxy-2-methyl-9H-pyrimido[4,5-b]indol-4-amine] |
| 10 | 32.7 | 7.5 | 52.5 | COc1cc2c(cc1-c1c(C)noc1C)[nH]c1nc(C)nc(Nc3c(C)cnn3C(C)(C)C)c12 [Cpd. No. 196, N-(1-(tert-butyl)-4-methyl-1H-pyrazol-5-yl)-7-(3,5-dimethylisoxazol-4-yl)-6-methoxy-2-methyl-9H-pyrimido[4,5-b]indol-4-amine] |
| 16 | 76 | 17 | 57 | COc1cc2c(cc1-c1c(C)noc1C)[nH]c1nc(C)nc(Nc3cccc4ncccc34)c12 [Cpd. No. 211, 7-(3,5-dimethylisoxazol-4-yl)-6-methoxy-2-methyl-N-(quinolin-5-yl)-9H-pyrimido[4,5-b]indol-4-amine] |
| 284 | 12 | 253 | 679 | COc1cc2c(cc1-c1c(C)noc1C)[nH]c1nc(C)nc(Nc3cnccc3C)c12 [Cpd. No. 109, 7-(3,5-dimethylisoxazol-4-yl)-6-methoxy-2-methyl-N-(4-methylpyridin-3-yl)-9H-pyrimido[4,5-b]indol-4-amine] |
| 1410 | 56 | 619 | 618 | COc1cc2c(cc1-c1c(C)noc1C)[nH]c1nc(C)nc(Nc3cncc(Cl)c3)c12 [Cpd. No. 106, N-(5-chloropyridin-3-yl)-7-(3,5-dimethylisoxazol-4-yl)-6-methoxy-2-methyl-9H-pyrimido[4,5-b]indol-4-amine] |
| 14.6 | 23.7 | 22.6 | 83.3 | COc1cc2c(cc1-c1c(C)noc1C)[nH]c1nc(C)nc(Nc3cnn4ccccc34)c12 [Cpd. No. 14, 7-(3,5-Dimethylisoxazol-4-yl)-6-methoxy-2-methyl-N-(pyrazolo[1,5-a]pyridin-3-yl)-9H-pyrimido[4,5-b]indol-4-amine] |
| 4.5 | 1.1 | 0.5 | 7.3 | CCn1nc2c(c1Nc1nc(C)nc3[nH]c4cc(-c5c(C)noc5C)c(OC)cc4c13)CCCC2 [Cpd. No. 142, 7-(3,5-Dimethylisoxazol-4-yl)-N-(2-ethyl-4,5,6,7-tetrahydro-2H-indazol-3-yl)-6-methoxy-2-methyl-9H-pyrimido[4,5-b]indol-4-amine] |
| 25 | 34 | 25 | 139 | COc1cc2c(cc1-c1c(C)noc1C)[nH]c1nc(C)nc(Nc3cccc4c3CCO4)c12 [Cpd. No. 234, N-(2,3-dihydrobenzofuran-4-yl)-7-(3,5-dimethylisoxazol-4-yl)-6-methoxy-2-methyl-9H-pyrimido[4,5-b]indol-4-amine] |
| 128 | 318 | 57 | 360 | COc1cc2c(cc1-c1c(C)noc1C)[nH]c1nc(C)nc(Nc3c(C)noc3C)c12 [Cpd. No. 215, N-(7-(3,5-dimethylisoxazol-4-yl)-6-methoxy-2-methyl-9H-pyrimido[4,5-b]indol-4-yl)-3,5-dimethylisoxazol-4-amine] |
| 19 | 220 | 35 | 292 | CCc1cccc(Nc2nc(C)nc3[nH]c4cc(-c5c(C)noc5C)c(OC)cc4c23)c1 [Cpd. No. 216, 7-(3,5-dimethylisoxazol-4-yl)-N-(3-ethylphenyl)-6-methoxy-2-methyl-9H-pyrimido[4,5-b]indol-4-amine] |
| 18.9 | 69.5 | 56.9 | 170 | CCn1nc(C2CC2)c(C)c1Nc1nc(C)nc2[nH]c3cc(-c4c(C)noc4C)c(OC)cc3c12 [Cpd. No. 145, N-(3-Cyclopropyl-1-ethyl-4-methyl-1H-pyrazol-5-yl)-7-(3,5-dimethylisoxazol-4-yl)-6-methoxy-2-methyl-9H-pyrimido[4,5-b]indol-4-amine] |
| 9.6 | 32.7 | 51.4 | 97.6 | COc1cc2c(cc1-c1c(C)noc1C)[nH]c1nc(C)nc(Nc3nn(CCO)c4ccccc34)c12 [Cpd. No. 131, 2-(3-((7-(3,5-Dimethylisoxazol-4-yl)-6-methoxy-2-methyl-9H-pyrimido[4,5-b]indol-4-yl)amino)-1H-indazol-1-yl)ethanol] |
| 9 | 24 | 12 | 47 | COc1cc2c(cc1-c1c(C)noc1C)[nH]c1nc(C)nc(Nc3c(C(C)C)nn(C)c3C(C)C)c12 [Cpd. No. 242, N-(3,5-diisopropyl-1-methyl-1H-pyrazol-4-yl)-7-(3,5-dimethylisoxazol-4-yl)-6-methoxy-2-methyl-9H-pyrimido[4,5-b]indol-4-amine] |
| 978 | 266 | 786 | 811 | COc1cc2c(cc1-c1c(C)noc1C)[nH]c1nc(C)nc(Nc3nnc4ccccn34)c12 [compound 101, N-([1,2,4]triazolo[4,3-a]pyridin-3-yl)-7-(3,5-dimethylisoxazol-4-yl)-6-methoxy-2-methyl-9H-pyrimido[4,5-b]indol-4-amine] |
| 6.9 | 25.7 | 3.6 | 58.7 | COc1cc2c(cc1-c1c(C)noc1C)[nH]c1nc(C)nc(Nc3c(C)cnn3C3CCC3)c12 [Cpd. No. 198, N-(1-cyclobutyl-4-methyl-1H-pyrazol-5-yl)-7-(3,5-dimethylisoxazol-4-yl)-6-methoxy-2-methyl-9H-pyrimido[4,5-b]indol-4-amine] |
| 29.4 | 117 | 23.7 | 156 | COc1cc2c(cc1-c1c(C)noc1C)[nH]c1nc(C)nc(Nc3c(C)cnn3C)c12 [Cpd. No. 76, N-(1,4-dimethyl-1H-pyrazol-5-yl)-7-(3,5-dimethylisoxazol-4-yl)-6-methoxy-2-methyl-9H-pyrimido[4,5-b]indol-4-amine] |
| 9.6 | 23 | 5.8 | 23.5 | COc1cc2c(cc1-c1c(C)noc1C)[nH]c1nc(C)nc(Nc3cc(C(C)(C)C)nn3C)c12 [Cpd. No. 120, N-(3-tert-Butyl-1-methyl-1H-pyrazol-5-yl)-7-(3,5-dimethylisoxazol-4-yl)-6-methoxy-2-methyl-9H-pyrimido[4,5-b]indol-4-amine] |
| 24.5 | 2420 | 21.5 | 303 | COc1cc2c(cc1-c1c(C)noc1C)[nH]c1nc(C)nc(Nc3scnc3C(C)(C)C)c12 [Cpd. No. 33, 4-(tert-butyl)-N-(7-(3,5-dimethylisoxazol-4-yl)-6-methoxy-2-methyl-9H-pyrimido[4,5-b]indol-4-yl)thiazol-5-amine] |
| 200 | 109 | 613 | 323 | COc1ccc2c(Nc3nc(C)nc4[nH]c5cc(-c6c(C)noc6C)c(OC)cc5c34)nn(C)c2c1 [Cpd. No. 19, 7-(3,5-Dimethylisoxazol-4-yl)-6-methoxy-N-(6-methoxy-1-methyl-1H-indazol-3-yl)-2-methyl-9H-pyrimido[4,5-b]indol-4-amine] |
| 29 | 62 | 52 | 238 | COc1cc2c(cc1-c1c(C)noc1C)[nH]c1nc(C)nc(Nc3ccc4c(c3)N(C)CC4)c12 [Cpd. No. 232, 7-(3,5-dimethylisoxazol-4-yl)-6-methoxy-2-methyl-N-(1-methylindolin-6-yl)-9H-pyrimido[4,5-b]indol-4-amine] |
| 9.6 | 7.2 | 7.2 | 29.8 | COc1cc2c(cc1-c1c(C)noc1C)[nH]c1nc(C)nc(Nc3c4c(nn3CCO)CCC4)c12 [Cpd. No. 150, 2-(3-((7-(3,5-Dimethylisoxazol-4-yl)-6-methoxy-2-methyl-9H-pyrimido[4,5-b]indol-4-yl)amino)-5,6-dihydrocyclopenta[c]pyrazol-2(4H)-yl)ethanol] |
| 15 | 61 | 14 | 162 | COc1cc2c(cc1-c1c(C)noc1C)[nH]c1nc(C)nc(Nc3ccccc3C(C)C)c12 [Cpd. No. 243, 7-(3,5-dimethylisoxazol-4-yl)-N-(2-isopropylphenyl)-6-methoxy-2-methyl-9H-pyrimido[4,5-b]indol-4-amine] |
